{
  "source": "patent US9386769B2",
  "about": "(HUNAN RESEARCH INSTITUTE OF CHEMICAL INDUSTRY CO., LTD., priority 2011, dated 2016)",
  "key": {"Sclerotinia sclerotiorum": {"system": "Sclerotinia sclerotiorum", "test": "Fungicidal activity against Sclerotinia sclerotiorum, mycelial growth inhibition on PDA plate", "type": "cell-based", "settings": "Sclerotinia sclerotiorum; for inhibition at 2.5 µg/mL: 2.5 mg/L; for inhibition at 5 µg/mL: 5 mg/L", "experimental": "(§1) Bioassay method: Stock solution of every test compound was prepared in an appropriate solvent such as N,N-dimethylformamide (DMF), and then diluted to the required test concentrations with sterile water containing 0.1% Tween 80; Pipetted 3 mL of test solution to 27 mL of potato dextrose agar (PDA) medium at 45° C. and poured into a Petri dish to prepare a plate after shaking thoroughly; 6 mm of diameter of fungi cake from the edge of 7-day-old […] colony was inoculated on the central of the plate, wherein mycelium facing down, and cultured in the culture tank at 28° C. The diameter of fungi spread was calculated 4 days later using the control group tested with the diluent only. Test was run 4 times. Data were subjected to EXCEL statistical software analysis and the growth inhibition of the tested compound was calculated according to the corresponding control, the activity was rated on the basis of percentage of growth inhibition using the following rating system: A, inhibition (%)>90; B, 90≧inhibition (%)>70; C, 70≧inhibition (%)>50; D, inhibition (%)≦50."}, "Botrytis cinerea": {"system": "Botrytis cinerea", "test": "Fungicidal activity against Botrytis cinerea, mycelial growth inhibition on PDA plate", "type": "cell-based", "settings": "Botrytis cinerea; for inhibition at 2.5 µg/mL: 2.5 mg/L; for inhibition at 5 µg/mL: 5 mg/L", "experimental": "as §1\nFungicidal activities against Botrytis cinerea of compounds represented by the general formula (I) were evaluated with the corresponding method in Example 18, and some of the test results are shown in Table 6 to Table 8."}, "Alternaria alternata": {"system": "Alternaria alternata", "test": "Fungicidal activity against Alternaria alternata, mycelial growth inhibition on PDA plate", "type": "cell-based", "settings": "Alternaria alternata", "experimental": "as §1\nFungicidal activities against Alternaria alternata of compounds represented by the general formula (I) were evaluated with the corresponding method in Example 18, and some of the test results are shown in Table 9 to Table 10."}, "Cercospora arachidicola": {"system": "Cercospora arachidicola", "test": "Fungicidal activity against Cercospora arachidicola", "type": "cell-based", "settings": "25 mg/L", "experimental": "as §1"}, "Alternaria mali": {"system": "Alternaria mali", "test": "Fungicidal activity against Alternaria mali", "type": "cell-based", "settings": "25 mg/L", "experimental": "as §1"}, "Sphaceloma ampelinum": {"system": "Sphaceloma ampelinum", "test": "Fungicidal activity against Sphaceloma ampelinum", "type": "cell-based", "settings": "25 mg/L", "experimental": "as §1"}, "Marssonina coronaria": {"system": "Marssonina coronaria", "test": "Fungicidal activity against Marssonina coronaria", "type": "cell-based", "settings": "25 mg/L", "experimental": "as §1"}, "Fusarium oxysporum": {"system": "Fusarium oxysporum", "test": "Fungicidal activity against Fusarium oxysporum", "type": "cell-based", "settings": "25 mg/L", "experimental": "as §1"}, "Alternaria solani": {"system": "Alternaria solani", "test": "Fungicidal activity against Alternaria solani", "type": "cell-based", "settings": "25 mg/L", "experimental": "as §1"}, "Aphis fabae": {"system": "Aphis fabae", "test": "Insecticidal activity against Aphis fabae, dipping of horsebean seedlings", "type": "in vivo", "settings": "24 h", "experimental": "Bioassay method: Stock solution of every test compound was prepared in an appropriate solvent such as N,N-dimethylformamide, and a small amount of Tween 80 was added as emulsification agent, then diluted to the required test concentrations with distilled water, using the control group tested with distilled water only. More than 20 adults of Aphis fabae were transferred to newly unearthed horsebean seedlings and 24 hr later, horsebean seedlings with Aphis fabae were dipped in the test solution for 5 s, then allowed to dry with filter paper, transplanted to the absorbent sponge and covered with a glass tube, then kept in a room for normal cultivation. Each assay contained three replications, and results were averaged. Mortality was assessed 24 hr after the treatment. The activity was rated to A, B, C or D according to the rating system in Example 22."}, "[1]": {"system": "Alternaria solani, Fusarium oxysporum, Marssonina coronaria, Sphaceloma ampelinum, Apple canker, Cercospora arachidicola and Alternaria mali", "test": "Fungicidal activities against several pathogens (Example 21), comparison with Procymidone", "type": "cell-based", "settings": "several pathogens of Example 21", "experimental": "as §1"}, "[2]": {"settings": "Table 4, read-out: activities against Sclerotinia sclerotiorum (growth inhibition)"}, "[3]": {"settings": "Table 5, read-out: activities against Sclerotinia sclerotiorum (growth inhibition)"}, "[4]": {"settings": "Table 7, read-out: activities against Botrytis cinerea (growth inhibition)"}, "[5]": {"settings": "Table 8, read-out: activities against Botrytis cinerea (growth inhibition)"}, "[6]": {"settings": "read-out: activities against Aphis fabae (mortality)"}},
  "note": "Where two headings read alike, the source gives them in different places.",
  "data": [
    {"smiles": "CCN(Cc1cnc(Cl)s1)c1nc(OC)ccc1[N+](=O)[O-]", "note": "[Compound 05, 6-methoxy-N-((2-chlorothiazole-5-yl)methyl)-N-ethyl-3-nitropyridin-2-amine]", "values": [
      {"measurement": "inhibition at 0.1562 µg/mL", "setting": "Sclerotinia sclerotiorum; 0.1562 mg/L, Table 5, read-out: activities against Sclerotinia sclerotiorum (growth inhibition)", "result": 63, "unit": "%"},
      {"measurement": "inhibition at 0.3125 µg/mL", "setting": "Sclerotinia sclerotiorum; 0.3125 mg/L, Table 5, read-out: activities against Sclerotinia sclerotiorum (growth inhibition)", "result": 63, "unit": "%"},
      {"measurement": "inhibition at 0.625 µg/mL", "setting": "Sclerotinia sclerotiorum; 0.625 mg/L, Table 5, read-out: activities against Sclerotinia sclerotiorum (growth inhibition)", "result": 68, "unit": "%"},
      {"measurement": "inhibition at 1.25 µg/mL", "setting": "Sclerotinia sclerotiorum; 1.25 mg/L, Table 4, read-out: activities against Sclerotinia sclerotiorum (growth inhibition)", "result": 95, "unit": "%"},
      {"measurement": "inhibition at 1.255 µg/mL", "setting": "Sclerotinia sclerotiorum; 1.255 mg/L, Table 5, read-out: activities against Sclerotinia sclerotiorum (growth inhibition)", "result": 73, "unit": "%"},
      {"measurement": "inhibition at 2.5 µg/mL", "setting": "Sclerotinia sclerotiorum; [2]", "result": 99, "unit": "%"},
      {"measurement": "inhibition at 2.5 µg/mL", "setting": "Sclerotinia sclerotiorum; [3]", "result": 90, "unit": "%"},
      {"measurement": "inhibition at 5 µg/mL", "setting": "Sclerotinia sclerotiorum; [2]", "result": 100, "unit": "%"},
      {"measurement": "inhibition at 5 µg/mL", "setting": "Sclerotinia sclerotiorum; [3]", "result": 96, "unit": "%"},
      {"measurement": "inhibition at 10 µg/mL", "setting": "Sclerotinia sclerotiorum; 10 mg/L, Table 4, read-out: activities against Sclerotinia sclerotiorum (growth inhibition)", "result": 100, "unit": "%"},
      {"measurement": "inhibition at 25 µg/mL", "setting": "Sclerotinia sclerotiorum; 25 mg/L, read-out: activities against Sclerotinia sclerotiorum (growth inhibition rating)", "result": "> 90", "unit": "%"},
      {"measurement": "inhibition at 0.1562 µg/mL", "setting": "Botrytis cinerea; 0.1562 mg/L, Table 8, read-out: activities against Botrytis cinerea (growth inhibition)", "result": 78, "unit": "%"},
      {"measurement": "inhibition at 0.3125 µg/mL", "setting": "Botrytis cinerea; 0.3125 mg/L, Table 8, read-out: activities against Botrytis cinerea (growth inhibition)", "result": 84, "unit": "%"},
      {"measurement": "inhibition at 0.625 µg/mL", "setting": "Botrytis cinerea; 0.625 mg/L, Table 8, read-out: activities against Botrytis cinerea (growth inhibition)", "result": 88, "unit": "%"},
      {"measurement": "inhibition at 1.25 µg/mL", "setting": "Botrytis cinerea; 1.25 mg/L, Table 7, read-out: activities against Botrytis cinerea (growth inhibition)", "result": 89, "unit": "%"},
      {"measurement": "inhibition at 1.255 µg/mL", "setting": "Botrytis cinerea; 1.255 mg/L, Table 8, read-out: activities against Botrytis cinerea (growth inhibition)", "result": 94, "unit": "%"},
      {"measurement": "inhibition at 2.5 µg/mL", "setting": "Botrytis cinerea; [4]", "result": 92, "unit": "%"},
      {"measurement": "inhibition at 2.5 µg/mL", "setting": "Botrytis cinerea; [5]", "result": 98, "unit": "%"},
      {"measurement": "inhibition at 5 µg/mL", "setting": "Botrytis cinerea; [4]", "result": 97, "unit": "%"},
      {"measurement": "inhibition at 5 µg/mL", "setting": "Botrytis cinerea; [5]", "result": 100, "unit": "%"},
      {"measurement": "inhibition at 10 µg/mL", "setting": "Botrytis cinerea; 10 mg/L, Table 7, read-out: activities against Botrytis cinerea (growth inhibition)", "result": 100, "unit": "%"},
      {"measurement": "inhibition at 25 µg/mL", "setting": "Botrytis cinerea; 25 mg/L, read-out: activities against Botrytis cinerea (growth inhibition rating)", "result": "> 90", "unit": "%"},
      {"measurement": "inhibition at 2.5 µg/mL", "setting": "Alternaria alternata; 2.5 mg/L, read-out: activities against Alternaria alternata (growth inhibition)", "result": 45, "unit": "%"},
      {"measurement": "inhibition at 5 µg/mL", "setting": "Alternaria alternata; 5 mg/L, read-out: activities against Alternaria alternata (growth inhibition)", "result": 75, "unit": "%"},
      {"measurement": "inhibition at 10 µg/mL", "setting": "Alternaria alternata; 10 mg/L, read-out: activities against Alternaria alternata (growth inhibition)", "result": 81, "unit": "%"},
      {"measurement": "inhibition at 25 µg/mL", "setting": "Alternaria alternata; 25 mg/L, read-out: activities against Alternaria alternata (growth inhibition rating)", "result": "70 to 90", "unit": "%"},
      {"measurement": "activity against Cercospora arachidicola", "setting": "Cercospora arachidicola", "result": 88, "unit": "%"},
      {"measurement": "activity against Alternaria mali", "setting": "Alternaria mali", "result": 82, "unit": "%"},
      {"measurement": "activity against Sphaceloma ampelinum", "setting": "Sphaceloma ampelinum", "result": 93, "unit": "%"},
      {"measurement": "activity against Marssonina coronaria", "setting": "Marssonina coronaria", "result": 78, "unit": "%"},
      {"measurement": "activity against Fusarium oxysporum", "setting": "Fusarium oxysporum", "result": 38, "unit": "%"},
      {"measurement": "activity against Alternaria solani", "setting": "Alternaria solani", "result": 87, "unit": "%"},
      {"measurement": "mortality at 500 µg/mL", "setting": "Aphis fabae; read-out: activities against Aphis fabae (mortality rating)", "result": "> 90", "unit": "%"},
      {"measurement": "mortality at 6.25 µg/mL", "setting": "Aphis fabae; [6]", "result": 12.7, "unit": "%"},
      {"measurement": "mortality at 25 µg/mL", "setting": "Aphis fabae; [6]", "result": 46.5, "unit": "%"},
      {"measurement": "mortality at 100 µg/mL", "setting": "Aphis fabae; [6]", "result": 87.5, "unit": "%"},
      {"measurement": "fungicidal activity compared with the commercial fungicide Procymidone", "setting": "[1]", "result": "better than or equal to that of the commercial fungicide Procymidone"}
    ]}
  ]
}
